Laboratory results published in the supplement of paper PMC12463676, “Small-molecule dissolution of stress granules by redox modulation benefits ALS models” (Nature Chemical Biology, 2025).

Compound: NC(=O)CCCCC1CCSS1 [lipoamide]
Experiment: thermal stability z-score vs DMSO; higher = more thermally stabilized by treatment
Settings: HeLa; lipoamide concentration 100 µM; arsenate co-treatment: none
Description: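 Cellular thermal proteome profiling in HeLa cells. Cells were treated with 100 µM lipoamide for 1 h, with or without 1 mM arsenate for a further 1 h, then heated to ten temperatures (37-66.3 °C), and soluble protein was quantified by TMT mass spectrometry relative to 0.1% DMSO controls. The thermal stability score (sum of log2 fold changes minus the abundance score) was transformed to a z-score; mean of n = 3 experiments.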
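Also: each temperature applied for 3 min, abundance score taken as mean log2 fold change at the two lowest temperatures, z-score obtained by mean subtraction and division by SD.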

Sequence of UniProt P50750 (P50750 whole entry): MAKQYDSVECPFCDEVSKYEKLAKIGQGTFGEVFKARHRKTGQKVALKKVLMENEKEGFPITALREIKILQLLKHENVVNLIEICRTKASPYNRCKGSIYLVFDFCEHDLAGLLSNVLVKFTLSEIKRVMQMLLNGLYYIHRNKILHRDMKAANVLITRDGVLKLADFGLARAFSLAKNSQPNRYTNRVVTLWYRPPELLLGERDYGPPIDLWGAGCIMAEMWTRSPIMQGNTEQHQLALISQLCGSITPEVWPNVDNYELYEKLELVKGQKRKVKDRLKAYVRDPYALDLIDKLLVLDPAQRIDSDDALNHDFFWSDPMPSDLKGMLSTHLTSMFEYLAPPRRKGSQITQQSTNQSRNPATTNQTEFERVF
Sequence of UniProt P52294 (P52294 whole entry): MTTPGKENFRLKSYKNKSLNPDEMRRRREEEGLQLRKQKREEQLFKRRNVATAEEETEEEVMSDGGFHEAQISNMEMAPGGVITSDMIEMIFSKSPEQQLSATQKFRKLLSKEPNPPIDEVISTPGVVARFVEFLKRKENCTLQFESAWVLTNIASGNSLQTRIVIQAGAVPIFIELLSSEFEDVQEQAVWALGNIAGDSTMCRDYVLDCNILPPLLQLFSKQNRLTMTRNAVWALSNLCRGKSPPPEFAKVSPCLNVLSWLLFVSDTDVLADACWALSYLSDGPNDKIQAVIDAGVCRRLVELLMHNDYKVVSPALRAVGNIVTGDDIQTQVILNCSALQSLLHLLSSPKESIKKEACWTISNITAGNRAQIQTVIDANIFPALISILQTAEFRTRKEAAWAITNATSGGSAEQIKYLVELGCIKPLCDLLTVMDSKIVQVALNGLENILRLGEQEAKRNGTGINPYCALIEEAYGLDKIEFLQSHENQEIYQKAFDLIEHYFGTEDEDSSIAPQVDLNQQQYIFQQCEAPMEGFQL
Sequence of UniProt Q9NRX1 (Q9NRX1 whole entry): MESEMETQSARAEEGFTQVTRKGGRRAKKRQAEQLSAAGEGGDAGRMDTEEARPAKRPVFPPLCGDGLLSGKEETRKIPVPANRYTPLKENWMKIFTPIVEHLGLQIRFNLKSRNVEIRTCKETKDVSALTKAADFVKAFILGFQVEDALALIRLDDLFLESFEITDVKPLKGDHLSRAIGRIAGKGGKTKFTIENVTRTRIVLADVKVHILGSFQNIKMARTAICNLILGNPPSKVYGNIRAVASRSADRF
Sequence of UniProt Q9UPN4 (Q9UPN4 whole entry): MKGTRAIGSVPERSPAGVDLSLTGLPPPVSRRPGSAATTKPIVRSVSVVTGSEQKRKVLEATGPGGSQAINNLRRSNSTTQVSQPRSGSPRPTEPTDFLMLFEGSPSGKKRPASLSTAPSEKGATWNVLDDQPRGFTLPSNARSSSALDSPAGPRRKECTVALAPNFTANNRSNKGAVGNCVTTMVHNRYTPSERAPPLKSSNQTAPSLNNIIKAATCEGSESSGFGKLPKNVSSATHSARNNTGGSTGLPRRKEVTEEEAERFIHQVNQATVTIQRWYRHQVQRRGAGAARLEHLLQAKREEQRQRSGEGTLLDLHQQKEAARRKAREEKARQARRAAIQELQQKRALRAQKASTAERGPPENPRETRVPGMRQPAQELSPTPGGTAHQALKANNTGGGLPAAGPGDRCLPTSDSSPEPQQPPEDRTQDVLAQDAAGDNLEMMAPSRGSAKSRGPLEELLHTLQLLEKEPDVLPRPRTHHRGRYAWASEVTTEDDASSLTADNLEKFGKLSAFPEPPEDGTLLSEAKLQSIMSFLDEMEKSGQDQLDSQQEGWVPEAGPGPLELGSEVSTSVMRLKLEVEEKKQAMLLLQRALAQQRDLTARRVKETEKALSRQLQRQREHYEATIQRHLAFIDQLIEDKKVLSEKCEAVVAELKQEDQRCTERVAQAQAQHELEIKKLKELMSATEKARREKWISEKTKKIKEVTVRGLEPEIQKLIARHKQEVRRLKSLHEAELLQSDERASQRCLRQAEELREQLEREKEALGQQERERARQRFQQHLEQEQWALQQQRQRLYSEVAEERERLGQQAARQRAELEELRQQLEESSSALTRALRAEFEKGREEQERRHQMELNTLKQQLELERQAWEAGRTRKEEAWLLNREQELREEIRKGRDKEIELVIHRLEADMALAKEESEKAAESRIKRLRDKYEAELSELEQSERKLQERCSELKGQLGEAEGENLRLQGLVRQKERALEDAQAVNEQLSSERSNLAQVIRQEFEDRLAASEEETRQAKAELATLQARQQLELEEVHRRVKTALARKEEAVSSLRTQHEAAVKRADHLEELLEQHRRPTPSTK
Sequence of UniProt P29218 (P29218 whole entry): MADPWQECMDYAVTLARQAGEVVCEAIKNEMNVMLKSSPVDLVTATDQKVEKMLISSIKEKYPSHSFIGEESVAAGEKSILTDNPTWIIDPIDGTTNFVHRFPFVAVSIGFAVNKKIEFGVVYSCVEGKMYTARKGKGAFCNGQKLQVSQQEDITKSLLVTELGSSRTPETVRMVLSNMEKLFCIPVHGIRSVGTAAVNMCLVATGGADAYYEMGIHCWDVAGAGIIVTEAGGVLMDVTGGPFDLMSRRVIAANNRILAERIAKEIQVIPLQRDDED
Sequence of UniProt Q9H078 (Q9H078 whole entry): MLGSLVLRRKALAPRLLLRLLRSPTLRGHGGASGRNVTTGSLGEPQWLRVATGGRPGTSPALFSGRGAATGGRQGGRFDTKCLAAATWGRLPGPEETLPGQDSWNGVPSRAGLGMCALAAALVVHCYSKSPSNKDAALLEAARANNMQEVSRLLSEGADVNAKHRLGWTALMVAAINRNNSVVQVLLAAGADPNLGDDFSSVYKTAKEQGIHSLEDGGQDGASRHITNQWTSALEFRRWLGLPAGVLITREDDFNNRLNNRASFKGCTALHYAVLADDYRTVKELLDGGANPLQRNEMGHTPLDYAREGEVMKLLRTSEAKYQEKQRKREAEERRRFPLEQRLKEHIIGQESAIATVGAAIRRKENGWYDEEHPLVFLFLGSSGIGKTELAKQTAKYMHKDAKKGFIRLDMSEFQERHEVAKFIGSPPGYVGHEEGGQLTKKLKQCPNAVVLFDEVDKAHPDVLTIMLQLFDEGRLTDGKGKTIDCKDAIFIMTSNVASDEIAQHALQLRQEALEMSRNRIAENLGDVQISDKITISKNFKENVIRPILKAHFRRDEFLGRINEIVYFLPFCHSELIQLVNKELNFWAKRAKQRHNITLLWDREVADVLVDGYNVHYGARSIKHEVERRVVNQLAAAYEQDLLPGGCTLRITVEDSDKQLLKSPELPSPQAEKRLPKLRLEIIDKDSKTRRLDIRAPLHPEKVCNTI
Sequence of UniProt Q96P53 (Q96P53 whole entry): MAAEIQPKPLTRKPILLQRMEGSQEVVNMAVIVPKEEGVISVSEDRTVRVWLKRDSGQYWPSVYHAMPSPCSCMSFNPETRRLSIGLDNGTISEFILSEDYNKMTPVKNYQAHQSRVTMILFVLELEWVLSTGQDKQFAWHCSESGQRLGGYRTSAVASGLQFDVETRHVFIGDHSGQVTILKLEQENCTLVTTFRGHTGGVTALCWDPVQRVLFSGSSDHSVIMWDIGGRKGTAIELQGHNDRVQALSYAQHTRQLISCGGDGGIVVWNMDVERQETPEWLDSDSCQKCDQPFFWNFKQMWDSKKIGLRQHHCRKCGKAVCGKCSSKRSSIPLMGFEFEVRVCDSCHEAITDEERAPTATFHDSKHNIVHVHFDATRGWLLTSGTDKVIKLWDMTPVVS
Sequence of UniProt P60604 (P60604 whole entry): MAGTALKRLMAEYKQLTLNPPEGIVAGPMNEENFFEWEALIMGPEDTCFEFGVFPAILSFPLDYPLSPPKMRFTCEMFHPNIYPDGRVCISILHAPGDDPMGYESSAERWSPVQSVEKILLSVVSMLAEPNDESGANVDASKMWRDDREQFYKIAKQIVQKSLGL
Sequence of UniProt P36969 (P36969 whole entry): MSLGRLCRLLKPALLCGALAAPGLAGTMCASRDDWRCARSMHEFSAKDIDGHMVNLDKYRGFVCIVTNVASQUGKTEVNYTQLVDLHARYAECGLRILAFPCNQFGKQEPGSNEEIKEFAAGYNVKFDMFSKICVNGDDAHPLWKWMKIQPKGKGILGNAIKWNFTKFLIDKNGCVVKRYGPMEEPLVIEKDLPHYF
Sequence of UniProt Q9BQE5 (Q9BQE5 whole entry): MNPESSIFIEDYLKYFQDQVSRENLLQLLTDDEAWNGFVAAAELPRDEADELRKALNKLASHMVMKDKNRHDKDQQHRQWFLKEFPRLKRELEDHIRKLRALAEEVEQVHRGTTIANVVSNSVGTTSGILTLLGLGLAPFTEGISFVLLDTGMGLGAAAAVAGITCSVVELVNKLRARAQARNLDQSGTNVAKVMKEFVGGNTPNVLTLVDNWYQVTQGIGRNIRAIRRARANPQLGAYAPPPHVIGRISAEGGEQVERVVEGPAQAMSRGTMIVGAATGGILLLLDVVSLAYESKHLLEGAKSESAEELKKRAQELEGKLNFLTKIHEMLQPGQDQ
Sequence of UniProt O60832 (O60832 whole entry): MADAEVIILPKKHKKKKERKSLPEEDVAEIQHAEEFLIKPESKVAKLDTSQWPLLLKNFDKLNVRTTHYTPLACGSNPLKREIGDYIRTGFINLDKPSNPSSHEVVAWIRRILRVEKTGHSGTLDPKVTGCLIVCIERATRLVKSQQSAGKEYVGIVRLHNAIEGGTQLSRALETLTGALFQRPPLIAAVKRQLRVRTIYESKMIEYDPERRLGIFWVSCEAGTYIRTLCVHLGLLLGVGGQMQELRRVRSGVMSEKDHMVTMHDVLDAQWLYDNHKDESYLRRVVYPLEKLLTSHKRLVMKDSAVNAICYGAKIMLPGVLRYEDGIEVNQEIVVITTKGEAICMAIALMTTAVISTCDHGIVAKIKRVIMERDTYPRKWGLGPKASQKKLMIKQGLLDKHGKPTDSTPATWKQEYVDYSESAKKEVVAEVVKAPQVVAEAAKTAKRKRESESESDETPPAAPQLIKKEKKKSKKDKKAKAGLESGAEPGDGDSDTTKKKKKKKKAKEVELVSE

Row | Target | thermal stability z-score
1 | PTBP1 (UniProt P26599) | 1.82
2 | CEP131 (UniProt Q9UPN4) | -0.195
3 | DNAJA2 (UniProt O60884) | -1.05
4 | PLEKHF2 (UniProt Q9H8W4) | -0.117
5 | NCAPD2 (UniProt Q15021) | -0.251
6 | DKC1 (UniProt O60832) | 0.39
7 | MSLN (UniProt Q13421) | -0.696
8 | UBE2G2 (UniProt P60604) | 0.813
9 | WDFY2 (UniProt Q96P53) | -0.11
10 | BCL10 (UniProt O95999) | 0.509
11 | PNO1 (UniProt Q9NRX1) | 0.362
12 | ZBTB10 (UniProt Q96DT7) | -0.093
13 | APOL2 (UniProt Q9BQE5) | 0.15
14 | GPX4 (UniProt P36969) | -0.696
15 | CLPB (UniProt Q9H078) | -0.275
16 | FNDC3B (UniProt Q53EP0) | 0.623

Row | Target | thermal stability z-score
17 | TTC1 (UniProt Q99614) | 0.337
18 | CDK9 (UniProt P50750) | -0.263
19 | MBLAC2 (UniProt Q68D91) | 0.367
20 | MOSPD1 (UniProt Q9UJG1) | -0.25
21 | MCOLN1 (UniProt Q9GZU1) | -0.559
22 | KPNA1 (UniProt P52294) | -0.0226
23 | STAM2 (UniProt O75886) | -0.113
24 | LARP1 (UniProt Q6PKG0) | 0.88
25 | UACA (UniProt Q9BZF9) | -0.0805
26 | DUS2 (UniProt Q9NX74) | 0.0964
27 | DMAP1 (UniProt Q9NPF5) | -0.38
28 | IMPA1 (UniProt P29218) | 0.776
29 | SH2D3A (UniProt Q9BRG2) | -0.263
30 | LRCH3 (UniProt Q96II8) | -0.00251
31 | MCFD2 (UniProt Q8NI22) | -0.109

Compound: O=[As]([O-])(O)O.[K+] [potassium arsenate]
Experiment: as above
Settings: HeLa; arsenate concentration 1 mM
Description: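 Cellular thermal proteome profiling in HeLa cells treated with 1 mM arsenate for 1 h (DMSO pretreatment), heated to ten temperatures (37-66.3 °C). Soluble protein was quantified by TMT mass spectrometry relative to DMSO controls; the thermal stability score was transformed to a z-score; mean of n = 3 experiments.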

Row | Target | thermal stability z-score
32 | FAM83G (UniProt A6ND36) | 0.138
33 | BZW1 (UniProt Q7L1Q6) | 0.483
34 | EIF4A2 (UniProt Q14240) | 0.658
35 | AUP1 (UniProt Q9Y679) | -0.628
36 | VPS41 (UniProt P49754) | -0.161
37 | MRPL19 (UniProt P49406) | 0.274
38 | CDK2 (UniProt P24941) | 0.48
39 | RPL36 (UniProt Q9Y3U8) | -1.19
40 | CMIP (UniProt Q8IY22) | -0.236
41 | MRPL30 (UniProt Q8TCC3) | 0.112
42 | ZC3H7A (UniProt Q8IWR0) | -0.613
43 | ATRX (UniProt P46100) | -0.0925
44 | PLA2G12A (UniProt Q9BZM1) | -0.111
45 | ERGIC2 (UniProt Q96RQ1) | -0.232
46 | UNC13D (UniProt Q70J99) | -0.283
47 | CHAF1B (UniProt Q13112) | 1.29
48 | NAXE (UniProt Q8NCW5) | -0.422
49 | OMA1 (UniProt Q96E52) | -0.431
50 | SGTA (UniProt O43765) | 0.149
51 | CRABP2 (UniProt P29373) | 0.378
52 | GNB1L (UniProt Q9BYB4) | -0.589

Row | Target | thermal stability z-score
53 | PIGG (UniProt Q5H8A4) | 0.14
54 | FZD2 (UniProt Q14332) | 0.0158
55 | HTRA2 (UniProt O43464) | -0.816
56 | NCEH1 (UniProt Q6PIU2) | -0.34
57 | RABIF (UniProt P47224) | -0.572
58 | IKBKG (UniProt Q9Y6K9) | -0.992
59 | MLST8 (UniProt Q9BVC4) | 0.14
60 | NIPSNAP3A (UniProt Q9UFN0) | 0.337
61 | ARHGDIB (UniProt P52566) | 0.0843
62 | PTBP1 (UniProt P26599) | 0.184
63 | CEP131 (UniProt Q9UPN4) | 0.215
64 | DNAJA2 (UniProt O60884) | -0.26
65 | PLEKHF2 (UniProt Q9H8W4) | -0.196
66 | NCAPD2 (UniProt Q15021) | 0.369
67 | DKC1 (UniProt O60832) | 0.437
68 | MSLN (UniProt Q13421) | -2.44
69 | UBE2G2 (UniProt P60604) | 0.643
70 | WDFY2 (UniProt Q96P53) | -0.0121
71 | BCL10 (UniProt O95999) | 2.16
72 | PNO1 (UniProt Q9NRX1) | -0.698
73 | ZBTB10 (UniProt Q96DT7) | -0.307

Row | Target | thermal stability z-score
74 | APOL2 (UniProt Q9BQE5) | 0.589
75 | GPX4 (UniProt P36969) | 0.286
76 | CLPB (UniProt Q9H078) | -0.0952
77 | FNDC3B (UniProt Q53EP0) | 3.13
78 | TTC1 (UniProt Q99614) | -0.104
79 | CDK9 (UniProt P50750) | 0.544
80 | MBLAC2 (UniProt Q68D91) | 0.708
81 | MOSPD1 (UniProt Q9UJG1) | -0.354
82 | MCOLN1 (UniProt Q9GZU1) | -1.27
83 | KPNA1 (UniProt P52294) | 0.239
84 | STAM2 (UniProt O75886) | 0.249
85 | LARP1 (UniProt Q6PKG0) | 1.03
86 | UACA (UniProt Q9BZF9) | 0.02
87 | DUS2 (UniProt Q9NX74) | -0.452
88 | DMAP1 (UniProt Q9NPF5) | -0.644
89 | IMPA1 (UniProt P29218) | 0.0144
90 | SH2D3A (UniProt Q9BRG2) | 0.0147
91 | LRCH3 (UniProt Q96II8) | -0.153
92 | MCFD2 (UniProt Q8NI22) | -0.565
